Measurements: PMC8318231, “Rate-of-Kill (RoK) assays to triage large compound sets for Chagas disease drug discovery: Application to GSK Chagas Box” (PLoS Neglected Tropical Diseases, 2021)

Experiments:
[1] = tested on: T. cruzi Tulahuen trypomastigotes; assay: T. cruzi trypomastigote assay (Cell Titer-Glo viability, ATP luminescence); type: cell-based, Trypanosoma cruzi; settings: for Trypomastigotes pIC50 48 hours: 48 hours incubation; for Trypomastigotes pIC50 48 hours / Trypomastigotes pIC50 72 hours: pIC50 = -log10 IC50 in molar units; for Trypomastigotes pIC50 72 hours: 72 hours incubation; for 72 pIC50: 72 h
Procedure, shortened: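 Tulahuen trypomastigotes from infected LLC-MK2 culture supernatants (days 5–8) plated at 5 × 10^4 per well in DMEM/2% FBS with compound at 5 μM single-shot final or in dose response. Viability by CellTiter-Glo ATP luminescence after 10 min at room temperature, normalised to no-cell (100%) and DMSO (0%) controls.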

TcCYP51 = settings: formerly reported; cited from earlier work
[2] = tested on: T. cruzi intracellular amastigotes in H9c2 cells; assay: Rate-of-Kill (RoK) high-content imaging assay, amastigotes per cell (AM/CELL) and curve descriptors; type: cell-based, Trypanosoma cruzi; design: key to ME_24h / ME_48h / ME_72h: % reduction in parasite burden (cidal response); t50pct_MCC50 / t50pct_Cmax: unit not given here; settings: for ME_24h: 24h; for ME_48h: 48h; for ME_72h: 72h; for AM/CELL NORM: sheet figure 4 A; for tlag_Cmax / t50pct_Cmax / t50%_Cmax: at Cmax; for ME_24h (%): maximum effect at 24 h; for ME_24h (%) / ME_48h (%) / ME_72h (%): RoK assay; for ME_48h (%): maximum effect at 48 h; for ME_72h (%): maximum effect at 72 h; for ME 24h (maximum effect at 24 hours, intracellular amastigotes): maximum percentage of parasite burden reduction reached by any concentration
Procedure, shortened: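 H9c2 cardiomyocytes infected with T. cruzi trypomastigotes (MOI 8, 18 h), then compounds tested at 5 μM single shot or 11-point 1/3 dilution from 50 μM. DRAQ5-stained nuclei imaged over a time course. Amastigotes per cell normalised to infected cells at 4 h (0%) and non-infected cells (100%).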

| Structure (SMILES) | Trypomastigotes pIC50 48 hours [1] | Trypomastigotes pIC50 72 hours [1] | CYP51 pIC50 (TcCYP51) | ME_24h ([2]; figure 5) | ME_48h ([2]; figure 5) | ME_72h ([2]; figure 5) | MCCE ([2]; RoK curve descriptor) | AM/CELL NORM ([2]; Time 4) | AM/CELL NORM ([2]; Time 24) | AM/CELL NORM ([2]; Time 48) | AM/CELL NORM ([2]; Time 72) | tlag_Cmax [2] | t50pct_Cmax ([2]; figure 5) | tlag_Cmax ([2]; figure 5) | t50pct_MCC50 ([2]; at MCC50, figure 5) | tlag_MCC50 ([2]; at MCC50, figure 5) | MCCE ([2]; figure 5) | ME_24h (%) [2] | ME_48h (%) [2] | ME_72h (%) [2] | also measured |
| --- | --- | --- | --- | --- | --- | --- | --- | --- | --- | --- | --- | --- | --- | --- | --- | --- | --- | --- | --- | --- | --- |
| O=C(CSc1ccc(-c2ccccn2)nn1)Nc1ccc(Cl)cc1 [TCMDC-143552] | 5.4 | 5.5 | < 4 | -18.5463 | -23.0005 | 85.8726 | 5.6 µM | 7.37 | -202.586 | -606.539 | -482.613 | 48.0 h | 72 | 48 | 72 | 48 | 5.556 | -18.6% | -23.0% | 85.9% | MCC50 ([2]; RoK curve descriptor): 16.7 µM; t50%_MCC50 ([2]; at MCC50): 72.0 h; tlag_MCC50 ([2]; at MCC50): 48.0 h; MCC50 ([2]; figure 5, in µM): 16.6667; ME 24h (maximum effect at 24 hours, intracellular amastigotes) [2]: -18.5463% |
| c1ccc2c(CCOc3nccnc3-c3ccncc3)c[nH]c2c1 [TCMDC-143562] | 4.4 | 4.5 | 7.2 | -24.9705 | 30.5632 | 12.8696 | 0.2 µM | -8.107 | -35.3498 | 30.5632 | -2.217 | 24.0 h | 72 | 24 | 72 | 72 | 0.2058 | -25.0% | 30.6% | 12.9% | MCC50 ([2]; figure 5): 50 µM; ME 24h (maximum effect at 24 hours, intracellular amastigotes) [2]: -24.9705% |
| O=C(Nc1ccc(Br)c(Cl)c1)Nc1ccc2c(c1)OCO2 [TCMDC-143588] | 5.5 | < 4.3 | < 4 | 4.143 | 11.8076 | -0.7061 | 5.6 µM | 16.6619 | 4.143 | 11.8076 | -47.3133 | 24.0 h | 72 | 24 | 72 | 72 | 5.556 | 4.1% | 11.8% | -0.7% | MCC50 ([2]; figure 5): 50 µM; ME 24h (maximum effect at 24 hours, intracellular amastigotes) [2]: 4.143% |
| COc1cccc(C(=O)[C@H]2C[C@@H]2CN(Cc2cccnc2)Cc2cccnc2)c1 [TCMDC-143593] | 5.2 | < 4.3 | 7.2 | -243.773 | -91.7284 | 36.534 | 0.02 µM | -1.514 | -270.363 | -91.7284 | -0.04888 | 24.0 h | 72 | 24 | 72 | 72 | 0.02286 | -243.8% | -91.7% | 36.5% | MCC50 ([2]; figure 5): 50 µM; ME 24h (maximum effect at 24 hours, intracellular amastigotes) [2]: -243.773% |
| Clc1ccc(Sc2cnccc2N2CCOCC2)cc1 [TCMDC-143602] | 4.5 | < 4.3 | 7.5 | -12.5205 | -29.081 | 15.6088 | 0.2 µM | 3.934 | -12.5205 | -29.081 | -95.1907 | 72.0 h | 72 | 72 | 72 | 72 | 0.2058 | -12.5% | -29.1% | 15.6% | MCC50 ([2]; figure 5): 50 µM; ME 24h (maximum effect at 24 hours, intracellular amastigotes) [2]: -12.5205% |
| N#Cc1cc(N2CCCC2=O)ccc1Sc1ccccc1CO [TCMDC-143604] | < 4.3 | < 4.3 | 4.7 | -55.9743 | 36.5881 | 78.1794 | 0.6 µM | 9.146 | -84.052 | 29.3818 | 78.3167 | 24.0 h | 72 | 24 | 72 | 24 | 0.6173 | -56.0% | 36.6% | 78.2% | 72 pIC50 (trypomastigotes, raw data of Fig 1D) ([1]; 72 hours, plotted values, censored values given without sign): < 4.3; 48 pIC50 ([1]; trypomastigote assay, 48 h, figure 1A): < 4.3; 72 pIC50 ([1]; trypomastigote assay, figure 1A): < 4.3; 72 pIC50 ([1]; trypomastigote assay, figure 1B): < 4.3; MCC50 ([2]; RoK curve descriptor): 1.9 µM; t50%_Cmax [2]: 72.0 h; t50%_MCC50 ([2]; at MCC50): 72.0 h; tlag_MCC50 ([2]; at MCC50): 24.0 h; MCC50 ([2]; figure 5, in µM): 1.852; ME 24h (maximum effect at 24 hours, intracellular amastigotes) [2]: -55.4036% |
| CCCc1nc2nc(N)nc(N)c2cc1CC [TCMDC-143606] | 5.9 | 5.8 | < 4 | 41.1896 | 50.5934 | 54.3499 | 0.2 µM | 30.5298 | 50.9144 | 56.204 | 55.305 | 4.0 h | 48 | 4 | 48 | 4 | 0.2058 | 41.2% | 50.6% | 54.4% | MCC and MCCE values (in words) [2]: low MCC and MCCE values; ME (maximum effect) in RoK assay (in words) [2]: high ME value; tlag times [2]: 4 h; MCC50 ([2]; RoK curve descriptor): 25.9 µM; t50%_Cmax [2]: 60.0 h; t50%_MCC50 ([2]; at MCC50): 48.0 h; tlag_MCC50 ([2]; at MCC50): 4.0 h; MCC50 ([2]; figure 5, in µM): 25.9259; ME 24h (maximum effect at 24 hours, intracellular amastigotes) [2]: 50.9144% |
| COc1ccccc1-c1c(C)[nH]c2nc(N)nc(C)c12 [TCMDC-143610] | 6.4 | 6.5 | 4.1 | 50.657 | 69.1206 | 72.4769 | 0.3 µM | 4.093 | 33.8882 | 64.2982 | 71.534 | 4.0 h | 54 | 4 | 48 | 4 | 0.3086 | 44.7% | 65.4% | 70.3% | activity in trypomastigotes assay (in words) ([1]; 48 and 72 hours): active; ME (maximum effect) in RoK assay (in words) [2]: high values in ME at the different times; tlag (in words) [2]: short tlag; MCC50 ([2]; RoK curve descriptor): 2.4 µM; t50%_Cmax [2]: 48.0 h; t50%_MCC50 ([2]; at MCC50): 52.8 h; tlag_MCC50 ([2]; at MCC50): 4.0 h; MCC50 ([2]; figure 5, in µM): 1.543; ME 24h (maximum effect at 24 hours, intracellular amastigotes) [2]: 71.8108% |
